Counter-ions that a name gives are not always drawn. Like-named read-outs stand apart in the source and are kept apart here.
Target: T1, ABCG2 (Homo sapiens, UniProt Q9UNQ0)
T1 sequence (Q9UNQ0 1-655): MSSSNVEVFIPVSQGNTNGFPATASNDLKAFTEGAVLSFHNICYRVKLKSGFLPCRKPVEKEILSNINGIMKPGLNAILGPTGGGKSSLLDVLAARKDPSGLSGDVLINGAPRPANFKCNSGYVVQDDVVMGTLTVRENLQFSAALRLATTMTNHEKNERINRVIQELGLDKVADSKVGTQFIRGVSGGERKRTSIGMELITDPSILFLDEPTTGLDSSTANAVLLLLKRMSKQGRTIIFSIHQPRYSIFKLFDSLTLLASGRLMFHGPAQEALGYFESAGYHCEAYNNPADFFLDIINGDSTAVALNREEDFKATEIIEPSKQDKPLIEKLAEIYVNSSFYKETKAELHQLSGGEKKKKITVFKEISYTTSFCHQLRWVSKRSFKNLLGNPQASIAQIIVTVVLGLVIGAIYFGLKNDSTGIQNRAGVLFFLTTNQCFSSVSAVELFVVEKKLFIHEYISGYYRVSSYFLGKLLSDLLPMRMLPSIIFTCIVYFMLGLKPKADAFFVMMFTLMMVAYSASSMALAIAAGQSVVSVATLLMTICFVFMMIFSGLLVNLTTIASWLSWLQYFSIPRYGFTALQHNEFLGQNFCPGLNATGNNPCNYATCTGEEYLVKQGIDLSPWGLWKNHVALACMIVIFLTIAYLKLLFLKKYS
Assay: Bioluminescence imaging (BLI) assay in HEK293/ABCG2/fLuc cells
Protocol: HEK293/ABCG2/fLuc cells were plated into 96-well plates at a density of 4×10^4 cells/100 μL per well and were allowed to attach overnight. The following day, 10 μL of each compound or the control solvent was transferred from a compound library in a 96-well, high-throughput format into the wells using a multichannel pipette. […] Images were taken every 5 minutes for ˜1 h. Light output from each well was quantified at the 40 min time point after initiation of imaging, and the signal-to-background (S/B) ratio of the light output from each compound divided by that from the control well was calculated. This S/B ratio serves as an indicator of the potency of ABCG2 inhibition, the mechanism by which BLI signal is enhanced.
Images were taken every 5 min for ˜1 h, and light output from each well at the 40 min time point was chosen for quantification. The SB ratio of the light output from each compound divided by that from the control well was calculated. This ratio was used as an indicator of the potency of ABCG2 inhibition, the mechanism by which BLI signal is enhanced.
The BLI signal-enhancing effect of selected ABCG2 inhibitors was evaluated within the range of 0.001 μM-100 μM, with HEK293/ABCG2/fLuc cells and 50 μg/mL D-luciferin. The data obtained at 40 min after imaging commencement were chosen arbitrarily to be plotted (FIG. 3).

[1] = Table 2, HEK293/ABCG2/fLuc cells, compound approximately 17 μM, ~50 μg/mL D-luciferin, 40 min time point

SMILES | Fold (BLI enhancement, S/B ratio over control) (human, 40 min, 17 μM) [fold] | further results
NCCS [mercaptamine hydrochloride] | 2.2 | –
Cc1cc(C(C)(C)CC(C)(C)C)ccc1OCCOCC[N+](C)(C)Cc1ccccc1.[Cl-] [methylbenzethonium chloride] | – | Fold (BLI enhancement, S/B ratio over control): 2.1 fold
COc1ccc(/C=C/C(=O)c2ccc(OC)cc2OC)cc1 [metochalcone] | 2.8 | –
CCOC(=O)Nc1ccc2c(c1)N(C(=O)CCN1CCOCC1)c1ccccc1S2 [moricizine hydrochloride] | 2.3 | –
COc1ccccc1N1CCN(CC(O)COc2cccc3ccccc23)CC1 (stereo not shown) [naftopidil] | 2.4 | –
O=C1C[C@@H](c2ccc(O)cc2)Oc2cc(O)cc(O)c21 [naringenin] | – | BLI signal enhancement (human, 40 min, 17 μM): 1.9 fold; fold (BLI enhancement), additional previously known ABCG2 inhibitors (human, 40 min, 17 μM): 1.9 fold
CCc1nn(CCCN2CCN(c3cccc(Cl)c3)CC2)c(=O)n1CCOc1ccccc1 [nefazodone hydrochloride] | 2.6 | –
Cc1c(O)cccc1C(=O)N[C@@H](CSc1ccccc1)[C@H](O)CN1C[C@H]2CCCC[C@H]2C[C@H]1C(=O)NC(C)(C)C [nelfinavir mesylate] | 6.1 | Fold (BLI enhancement), known compounds (human, 40 min, 17 μM): 6.1 fold
COC(=O)C1=C(C)NC(C)=C(C(=O)OCCN(C)Cc2ccccc2)C1c1cccc([N+](=O)[O-])c1 (stereo not shown) [nicardipine] | 2.9 | fold (BLI enhancement), additional previously known ABCG2 inhibitors (human, 40 min, 17 μM): 2.9 fold
CO[C@]12C[C@@H](COC(=O)c3cncc(Br)c3)CN(C)[C@@H]1Cc1cn(C)c3cccc2c13 [nicergoline] | 2.0 | –
COC(=O)C1=C(C)NC(C)=C(C(=O)OCCCN2CCC(c3ccccc3)(c3ccccc3)CC2)[C@H]1c1cccc([N+](=O)[O-])c1 [niguldipine] | – | Fold (BLI enhancement), known compounds (human): 5.9 fold; Fold (BLI enhancement, S/B ratio over control) (human): 5.9 fold
COCCOC(=O)C1=C(C)NC(C)=C(C(=O)OC(C)C)C1c1cccc([N+](=O)[O-])c1 (stereo not shown) [nimodipine] | 2.8 | fold (BLI enhancement), additional previously known ABCG2 inhibitors (human, 40 min, 17 μM): 2.8 fold
COC(=O)C1=C(C)NC(C)=C(C(=O)OCC(C)C)C1c1ccccc1[N+](=O)[O-] (stereo not shown) [nisoldipine] | 3.2 | –
COc1ccc2c(c1OC)C(=O)O[C@@H]2[C@H]1c2c(cc3c(c2OC)OCO3)CCN1C [noscapine hydrochloride] | 2.3 | –
CC[C@H]1/C=C/C=C/C[C@@H](C)[C@H](O)[C@@](C)(O)C(=O)[C@@H](C)[C@H](O)[C@@H](C)C(=O)[C@@H](C)[C@H](O)[C@@H](C)/C=C/C(=O)O[C@@H]2[C@H](C)[C@H](CC1)O[C@]1(CC[C@H](C)[C@H](C[C@@H](C)O)O1)[C@H]2C [oligomycin] | – | Fold (BLI enhancement, S/B ratio over control) [1]: 5.0 fold; Fold (BLI enhancement), previously unknown compounds (Table 4, approximately 17 μM, 40 min time point): 5.0 fold
Cc1c(-c2cnccn2)ssc1=S [oltipraz] | 3.2 | –
Cc1nccn1CC1CCc2c(c3ccccc3n2C)C1=O (stereo not shown) [ondansetron hydrochloride] | 2.7 | –
COC(=O)Nc1nc2ccc([S+]([O-])c3ccccc3)cc2[nH]1 (stereo not shown) [oxfendazole] | 2.1 | –
COc1ccc(Cc2nccc3cc(OC)c(OC)cc23)cc1OC [papaverine hydrochloride] | – | Fold (BLI enhancement, S/B ratio over control) (human): 2.0 fold
CCCCCCn1c(=O)c2c(ncn2C)n(C)c1=O [pentifylline] | 3.8 | –
N#Cc1ccc2c(c1)N(CCCN1CCC(O)CC1)c1ccccc1S2 [periciazine] | – | Fold (BLI enhancement), previously unknown compounds (human, 40 min, 17 μM): 6.3 fold
OCCN1CCN(CCCN2c3ccccc3Sc3ccc(Cl)cc32)CC1 [perphenazine] | 4.2 | –
COS(=O)(=O)[O-].C[n+]1c2ccccc2nc2ccccc21 [phenazine methosulfate] | – | Fold (BLI enhancement, S/B ratio over control) [1]: 2.8 fold

SMILES | Fold (BLI enhancement, S/B ratio over control) (human, 40 min, 17 μM) [fold] | further results
O=C(O)CCCc1ccccc1 [phenylbutyric acid] | – | Fold (BLI enhancement, S/B ratio over control) [1]: 2.1 fold
COc1cc(O)c2c(c1)C(=O)c1cc(C)cc(O)c1C2=O [physcion] | 2.1 | –
O=c1[nH]c2ccccc2n1C1CCN(CCCC(c2ccc(F)cc2)c2ccc(F)cc2)CC1 [pimozide] | 2.0 | –
CC(=O)c1ccc2c(c1)N(CCCN1CCC(CCO)CC1)c1ccccc1S2 [piperacetazine] | 5.8 | Fold (BLI enhancement), previously unknown compounds (human, 40 min, 17 μM): 5.8 fold
COc1ccc(C(=O)c2c(C)n(CCN3CCOCC3)c3ccccc23)cc1 [pravadoline] | – | Fold (BLI enhancement, S/B ratio over control) [1]: 2.7 fold
O=C(C1CCCCC1)N1CC(=O)N2CCc3ccccc3C2C1 (stereo not shown) [praziquantel] | 3.3 | –
CN1CCCN=C1/C=C/c1cccs1 [pyrantel] | 3.9 | –
O=C1c2ccc(O)c(O)c2C(=O)c2c(O)ccc(O)c21 [quinalizarin] | 3.0 | –
CC(=O)SCC(Cc1ccccc1)C(=O)NCC(=O)OCc1ccccc1 (stereo not shown) [racecadotril] | 2.0 | –
COC(=O)[C@H]1[C@H]2C[C@@H]3c4[nH]c5cc(OC)ccc5c4CCN3C[C@H]2C[C@@H](OC(=O)c2cc(OC)c(OC)c(OC)c2)[C@@H]1OC [reserpine] | 5.4 | Fold (BLI enhancement), known compounds (human, 40 min, 17 μM): 5.4 fold
C=C(C)[C@]12C[C@@H](C)[C@@]34O[C@](Cc5ccccc5)(O[C@@H]1[C@@H]3C=C(COC(=O)Cc1ccc(O)c(OC)c1)C[C@]1(O)C(=O)C(C)=C[C@@H]41)O2 [resiniferatoxin] | – | Fold (BLI enhancement, S/B ratio over control) [1]: 4.2 fold
O=C(O)c1cc(O)c2c(c1)C(=O)c1cccc(O)c1C2=O [rhein] | 3.1 | –
CC(C)c1nc(N(C)S(C)(=O)=O)nc(-c2ccc(F)cc2)c1/C=C/[C@@H](O)C[C@@H](O)CC(=O)O [rosuvastatin] | 3.9 | –
O=C(Nc1ccccc1)c1ccccc1O [salicylanilide] | – | Fold (BLI enhancement, S/B ratio over control) [1]: 2.2 fold
OCc1cc(C(O)CNCCCCCCOCCCCc2ccccc2)ccc1O (stereo not shown) [salmeterol xinafoate] | 2.4 | –
CC(C)(C)NC(=O)[C@@H]1C[C@@H]2CCCC[C@@H]2CN1C[C@@H](O)[C@H](Cc1ccccc1)NC(=O)[C@H](CC(N)=O)NC(=O)c1ccc2ccccc2n1 [saquinavir mesylate] | 4.9 | fold (BLI enhancement), additional previously known ABCG2 inhibitors (human, 40 min, 17 μM): 4.9 fold
CCCc1nn(C)c2c(=O)[nH]c(-c3cc(S(=O)(=O)N4CCN(C)CC4)ccc3OCC)nc12 [sildenafil] | 6.6 | Fold (BLI enhancement), previously unknown compounds (human, 40 min, 17 μM): 6.6 fold
CCC(C)(C)C(=O)O[C@H]1C[C@@H](C)C=C2C=C[C@H](C)[C@H](CC[C@@H]3C[C@@H](O)CC(=O)O3)[C@H]21 [simvastatin] | 2.7 | –
C[C@]12Cc3c[nH]nc3C[C@@H]1CC[C@@H]1[C@@H]2CC[C@@]2(C)[C@H]1CC[C@]2(C)O [stanozolol] | – | Fold (BLI enhancement, S/B ratio over control) (human): 2.8 fold
COc1cc([S+](C)[O-])ccc1-c1nc2ncccc2[nH]1 (stereo not shown) [sulmazole] | 3.0 | –
CCCCCNC(=N)N/N=C/c1c[nH]c2ccc(OC)cc12 [tegaserod maleate] | 3.1 | –
CCCc1nc2c(C)cc(-c3nc4ccccc4n3C)cc2n1Cc1ccc(-c2ccccc2C(=O)O)cc1 [telmisartan] | 2.0 | –

Reference: patent publication US20150148256A1, “BIOLUMINESCENCE IMAGING-BASED SCREENING ASSAY AND INHIBITORS OF ABCG2” (THE JOHNS HOPKINS UNIVERSITY, priority 2008, published 2015)
